Data reported in patent US7585859B2, “PDE4B inhibitors and uses therefor” (Plexxikon, Inc., priority 2004, dated 2009).
Like-named read-outs stand apart in the source and are kept apart here.

Experiments:
PDE4D = target: T1, PDE4D (Homo sapiens, UniProt Q08499); test: PDE4 IC50 determination by Scintillation Proximity Assay, PDE4D; format: biochemical
T1 construct: PDE4D: The catalytic domain of human PDE4B from S3 16-V692; His6 (N); thrombin cleavage site (N); made in house; host or cells: E. coli
Description: (§1) IC50s were determined by Scintillation Proximity Assay (SPA). The principle of the assay is based on the fact that cAMP, the PDE4 substrate, binds weakly to Yittrium Silicate SPA beads, whereas AMP, the product of PDE4 hydrolysis binds strongly. Thus, the extent of PDE4 hydrolysis of a sample of [^3H]cAMP can be measured because only the
(§2) [^3H]AMP produced by PDE4 hydrolysis will bind to the SPA beads and produce a scintillation signal.
(§3) PDE4 enzymes used for IC50 assays were:
(§4) Enzyme was stored in 50% glycerol at −20°.
(§5) In addition to the compound dilutions, each assay plate contained control wells with 1 μl of DMSO (to define 0% enzyme inhibition) or 1 μl of 200 μM roflumilast (to define 100% enzyme inhibition). […] Next, 10 μl of PDE4 enzyme in assay buffer was added and the plates were shaken for 30 s. at 1000 rpm to start the cAMP hydrolysis reaction. The concentrations of enzyme used were: PDE4B, 80 ng/ml; PDE4D, 4 ng/ml; PDE4B2, 2.5 μl of 50% glycerol stock/ml; PDE4D5 0.083 μl of 50% glycerol stock/ml. Assay plates were covered and incubated for 30 min. at 30°. […] The assay plates were covered with clear plastic film, centrifuged for 1 min. at 1000 RPM to settle the SPA beads, and counted using a Wallac TriLux scintillation counter. IC50's were calculated from the raw assay data by non-linear regression curve fitting using the Assay Explorer software package from MDL.

[1] = target: T2, PDE4B: The catalytic domain of human PDE4B from S152-S528 (Homo sapiens, UniProt Q07343); test: PDE4 IC50 determination by Scintillation Proximity Assay, PDE4B; format: biochemical; settings: read-out: IC50 PDE4B
T2 construct: His6 (N); thrombin cleavage site (N); made in house; host or cells: E. coli
Description: as §1, §2, §3, §4, §5

[2] = Table 1B, Formula I compounds, read-out: IC50 PDE4D
[3] = second part of Table 2B (2-23 to 2-103), column 5, column is PDE4D in first part, read-out: IC 50 vs. indicated assay h TNFα
[4] = Table 3A, Formula III compounds

T1 sequence (Q08499 380-756): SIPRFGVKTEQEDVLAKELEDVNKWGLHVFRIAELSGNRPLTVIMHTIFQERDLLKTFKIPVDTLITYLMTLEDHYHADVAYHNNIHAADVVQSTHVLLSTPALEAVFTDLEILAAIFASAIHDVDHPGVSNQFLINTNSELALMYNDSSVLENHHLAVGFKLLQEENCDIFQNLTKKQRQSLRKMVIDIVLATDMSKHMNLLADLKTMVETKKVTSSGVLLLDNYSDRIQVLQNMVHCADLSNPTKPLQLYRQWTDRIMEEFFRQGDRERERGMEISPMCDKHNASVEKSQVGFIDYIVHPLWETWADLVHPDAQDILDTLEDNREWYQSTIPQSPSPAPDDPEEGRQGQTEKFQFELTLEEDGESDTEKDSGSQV
T2 sequence (Q07343 with tags, fused parts or gaps): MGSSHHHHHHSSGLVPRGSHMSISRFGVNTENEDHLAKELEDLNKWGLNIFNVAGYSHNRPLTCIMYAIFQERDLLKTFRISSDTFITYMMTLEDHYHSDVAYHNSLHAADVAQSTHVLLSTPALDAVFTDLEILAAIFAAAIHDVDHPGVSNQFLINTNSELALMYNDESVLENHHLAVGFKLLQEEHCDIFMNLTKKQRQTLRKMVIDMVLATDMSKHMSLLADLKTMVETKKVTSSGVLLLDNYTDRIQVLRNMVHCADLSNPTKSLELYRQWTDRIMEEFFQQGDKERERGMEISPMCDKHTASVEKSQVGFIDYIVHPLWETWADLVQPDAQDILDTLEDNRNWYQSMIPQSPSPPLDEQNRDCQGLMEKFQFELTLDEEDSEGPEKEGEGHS

Compound	IC50 (PDE4D; [2]) [µM]	IC50 ([1]; Table 1B, Formula I compounds) [µM]	IC50 [1, 4] [µM]	further results
CC1C2=C(CC(C)(C)CC2=O)Nc2sc(C(N)=O)c(N)c21 (centres unmarked) [Compound 1-4, 3-Amino-4,7,7-trimethyl-5-oxo-4,5,6,7,8,9-hexahydro-thieno[2,3-b]quinoline-2-carboxylic acid amide]	> 10	> 10	–	–
COc1cc(C#N)c(Nc2sc(C(=O)c3ccc(Cl)cc3)c(N)c2C#N)cc1OC [Compound 1-19, 4-Amino-5-(4-chloro-benzoyl)-2-(2-cyano-4,5-dimethoxy-phenylamino)-thiophene-3-carbonitrile]	< 10	< 10	–	–
Cc1cc(Cl)ccc1Nc1sc(C(=O)c2cc3cc(Cl)ccc3o2)c(N)c1C#N [Compound 1-23, 4-Amino-5-(5-chloro-benzofuran-2-carbonyl)-2-(4-chloro-2-methyl-phenylamino)-thiophene-3-carbonitrile]	> 10	> 10	–	–
CCOC(=O)c1c(Nc2c(C)cccc2C)sc(C(=O)c2ccc(Br)cc2)c1N [Compound 1-24, 4-Amino-5-(4-bromo-benzoyl)-2-(2,6-dimethyl-phenylamino)-thiophene-3-carboxylic acid ethyl ester]	> 10	> 10	–	–
N#Cc1c(Nc2ccccc2)sc(C(=O)Nc2nccs2)c1N [Compound 1-25, 3-Amino-4-cyano-5-phenylamino-thiophene-2-carboxylic acid thiazol-2-yl amide]	< 10	< 10	–	–
Cc1cc(NC(=O)c2sc(Nc3ccccc3)c(C#N)c2N)no1 [Compound 1-26, 3-Amino-4-cyano-5-phenylamino-thiophene-2-carboxylic acid (5-methyl-isoxazol-3-yl)-amide]	< 10	< 10	–	–
Cc1cc(=O)[nH]c2sc(C(=O)c3ccc(Cl)c(Cl)c3)c(N)c12 [Compound 1-27, 3-Amino-2-(3,4-dichloro-benzoyl)-4-methyl-7H-thioeno[2,3-b]pyridin-6-one]	> 10	–	–	–
Cc1ccc(C(=O)c2sc(NCCN3CCCCC3)c(C#N)c2N)c(C)c1 [Compound 1-38, 4-Amino-5-(2,4-dimethyl-benzoyl)-2-(2-piperidin-1-yl-ethylamino)-thiophene-3-carbonitrile]	> 10	> 10	–	–
COc1ccc(OC)c(C(=O)c2sc(NCCN3CCCCC3)c(C#N)c2N)c1 [Compound 1-39, 4-Amino-5-(2,5-dimethoxy-benzoyl)-2-(2-piperidin-1-yl-ethylamino)-thiophene-3-carbonitrile]	> 10	> 10	–	–
COc1ccc(C(=O)c2sc(NCCN3CCCCC3)c(C#N)c2N)c(OC)c1 [Compound 1-41, 4-Amino-5-(2,4-dimethoxy-benzoyl)-2-(2-piperidin-1-yl-ethylamino)-thiophene-3-carbonitrile]	> 10	> 10	–	–
COC(=O)C(CC(C)C)Nc1sc(C(=O)c2ccc(OC)cc2OC)c(N)c1C#N (centres unmarked) [Compound 1-42, 2-[4-Amino-3-cyano-5-(2,4-dimethoxy-benzoyl)-thiophen-2-ylamino]-4-methyl-pentanoic acid methyl ester]	> 10	< 10	–	–
COc1ccc(C(=O)c2sc(NC3CCOC3=O)c(C#N)c2N)c(OC)c1 (centres unmarked) [Compound 1-44, 4-Amino-5-(2,4-dimethoxy-benzoyl)-2-(2-oxo-tetrahydro-furan-3-ylamino)-thiophene-3-carbonitrile]	> 10	< 10	–	–
Nc1nc(Nc2ccc(Oc3ccccc3)cc2)sc1C(=O)c1cc(-c2ccccc2)no1 [Compound 2-8, [4-Amino-2-(4-phenoxy-phenylamino)-thiazol-5-yl]-(3-phenyl-isoxazol-5-yl)-methanone]	–	–	–	IC50 (PDE4D; first part of Table 2B (2-1 to 2-22), read-out: IC 50 vs. indicated assay PDE4D): > 10 µM
Nc1nc(Nc2ccc(Oc3ccccc3)cc2)sc1C(=O)c1ccc(Oc2ccccc2)cc1 [Compound 2-47, [4-Amino-2-(4-phenoxy-phenylamino)-thiazol-5-yl]-(4-phenoxy-phenyl)-methanone]	–	–	–	IC50 (PDE4D; [3]): > 10 µM
Nc1nc(Nc2ccc(Oc3ccccc3)cc2)sc1C(=O)c1ccc(OC(F)F)cc1 [Compound 2-61, [4-Amino-2-(4-phenoxy-phenylamino)-thiazol-5-yl]-(4-difluoromethoxy-phenyl)-methanone]	–	–	–	IC50 (PDE4D; [3]): > 10 µM
COc1cccc(C(=O)c2sc(Nc3cccc(C#N)c3)nc2N)c1 [Compound 2-64, 3-[4-Amino-5-(3-methoxy-benzoyl)-thiazol-2-ylamino]-benzonitrile]	–	–	–	IC50 (PDE4D; [3]): > 10 µM
CSc1ncc(-c2ccc(S(=O)(=O)N(C)c3cccc4cccnc34)s2)cn1 [Compound 3-19, 5-(2-Methylsulfanyl-pyrimidin-5-yl)-thiophene-2-sulfonic acid methyl-quinolin-8-yl-amide]	–	–	< 10	–
O=S(=O)(Nc1ccc(Br)c2cccnc12)c1ccc(-c2cnco2)s1 [Compound 3-35, 5-Oxazol-5-yl-thiophene-2-sulfonic acid (5-bromo-quinolin-8-yl)-amide]	–	–	< 10	–
COc1ccc(NS(=O)(=O)c2ccc(-c3cnco3)s2)c2ncccc12 [Compound 3-36, 5-Oxazol-5-yl-thiophene-2-sulfonic acid (5-methoxy-quinolin-8-yl)-amide]	–	–	< 10	–
COc1cc(NS(=O)(=O)c2c(Cl)cccc2Cl)c2ncccc2c1 [Compound 3-50, 2,6-Dichloro-N-(6-methoxy-quinolin-8-yl)-benzenesulfonamide]	–	–	> 10	–
O=S(=O)(Nc1cc(Br)cc2cccnc12)c1ccccc1 [Compound 3-59, N-(6-Bromo-quinolin-8-yl)-benzenesulfonamide]	–	–	> 10	–
COc1ccc(Br)cc1S(=O)(=O)Nc1cccc2cccnc12 [Compound 3-60, 5-Bromo-2-methoxy-N-quinolin-8-yl-benzenesulfonamide]	–	–	> 10	–
O=S(=O)(Nc1cccc2cccnc12)c1cccc(Nc2ccncn2)c1 [Compound 3-61, 3-(Pyrimidin-4-ylamino)-N-quinolin-8-yl-benzenesulfonamide]	–	–	< 10	–
CSc1nc(Nc2ccc(S(=O)(=O)Nc3cccc4cccnc34)cc2)c2ccccc2n1 [Compound 3-62, 4-(2-Methylsulfanyl-quinazolin-4-ylamino)-N-quinolin-8-yl-benzenesulfonamide]	–	–	< 10	–
CSc1nc(Nc2cccc(S(=O)(=O)Nc3cccc4cccnc34)c2)c2ccccc2n1 [Compound 3-63, 3-(2-Methylsulfanyl-quinazolin-4-ylamino)-N-quinolin-8-yl-benzenesulfonamide]	–	–	< 10	–
O=C(c1ccncc1)c1ccc(S(=O)(=O)Nc2cccc3cccnc23)cc1 [Compound 3-64, 4-(Pyridine-4-carbonyl)-N-quinolin-8-yl-benzenesulfonamide]	–	–	< 10	–
O=S(=O)(Nc1cccc2cccnc12)c1ccc(N2CCOCC2)cc1 [Compound 3-65, 4-Morpholin-4-yl-N-quinolin-8-yl-benzenesulfonamide]	–	–	< 10	–
Cc1nccc(-c2cccc(S(=O)(=O)Nc3ccc(Br)c4cccnc34)c2)n1 [Compound 3-67, N-(5-Bromo-quinolin-8-yl)-3-(2-methyl-pyrimidin-4-yl)-benzenesulfonamide]	–	–	> 10	–
COc1ccc(NS(=O)(=O)c2cccc(-c3ccnc(C)n3)c2)c2ncccc12 [Compound 3-68, N-(5-Methoxy-quinolin-8-yl)-3-(2-methyl-pyrimidin-4-yl)-benzenesulfonamide]	–	–	< 10	–
O=S(=O)(Nc1cccc2cccnc12)c1ccc(Oc2ccccc2)nc1 [Compound 3-69, 6-Phenoxy-pyridine-3-sulfonic acid quinolin-8-ylamide]	–	–	> 10	–
